{
  "source": "patent US20060199791A1",
  "about": "“Anti-microbial composition comprising a metal ion chelating agent” (AQ+ PLC, priority 2001, published 2006)",
  "origin": "cited, not measured here",
  "data": [
    {"test_system": "long term sinus infection", "details": "patient history, infection for some 14 to 15 years", "values": [
      {"smiles": "O=C(O)c1cn(C2CC2)c2cc(N3CCNCC3)c(F)cc2c1=O", "note": "[Cipro]", "response of the sinus infection to earlier antibiotic treatment": "resistant to treatment"},
      {"smiles": "CCC[C@@H]1C[C@@H](C(=O)N[C@@H]([C@H]2O[C@H](SC)[C@H](O)[C@@H](O)[C@H]2O)[C@H](C)Cl)N(C)C1", "note": "[Clindramycin]", "response of the sinus infection to earlier antibiotic treatment": "resistant to treatment"},
      {"smiles": "CC1(C)S[C@@H]2[C@H](NC(=O)[C@H](N)c3ccc(O)cc3)C(=O)N2[C@H]1C(=O)O", "note": "[Trimox]", "response of the sinus infection to earlier antibiotic treatment": "resistant to treatment"},
      {"smiles": "CC1(C)S[C@@H]2[C@H](NC(=O)COc3ccccc3)C(=O)N2[C@H]1C(=O)O", "note": "[Veetids]", "response of the sinus infection to earlier antibiotic treatment": "resistant to treatment"}
    ]}
  ]
}
